Test results: patent US8853203B2, “Diazepinone derivatives” (Novartis AG, priority 2012, dated 2014)
pIC50: −log10 of the molar value.

Legend:
human mGluR5a receptors = human mGluR5a receptors (Homo sapiens (Human), UniProt P41594); experiment: inhibition of glutamate-induced elevation of intracellular calcium in L(tk-) cells expressing human mGluR5a; type: cell-based; conditions: for pIC50: glutamate-induced intracellular calcium elevation, L(tk-) cells expressing human mGluR5a, read-out: mGluR5 IC50
Sequence of human mGluR5a receptors (P41594 other isoform, or with tags, fused parts or gaps): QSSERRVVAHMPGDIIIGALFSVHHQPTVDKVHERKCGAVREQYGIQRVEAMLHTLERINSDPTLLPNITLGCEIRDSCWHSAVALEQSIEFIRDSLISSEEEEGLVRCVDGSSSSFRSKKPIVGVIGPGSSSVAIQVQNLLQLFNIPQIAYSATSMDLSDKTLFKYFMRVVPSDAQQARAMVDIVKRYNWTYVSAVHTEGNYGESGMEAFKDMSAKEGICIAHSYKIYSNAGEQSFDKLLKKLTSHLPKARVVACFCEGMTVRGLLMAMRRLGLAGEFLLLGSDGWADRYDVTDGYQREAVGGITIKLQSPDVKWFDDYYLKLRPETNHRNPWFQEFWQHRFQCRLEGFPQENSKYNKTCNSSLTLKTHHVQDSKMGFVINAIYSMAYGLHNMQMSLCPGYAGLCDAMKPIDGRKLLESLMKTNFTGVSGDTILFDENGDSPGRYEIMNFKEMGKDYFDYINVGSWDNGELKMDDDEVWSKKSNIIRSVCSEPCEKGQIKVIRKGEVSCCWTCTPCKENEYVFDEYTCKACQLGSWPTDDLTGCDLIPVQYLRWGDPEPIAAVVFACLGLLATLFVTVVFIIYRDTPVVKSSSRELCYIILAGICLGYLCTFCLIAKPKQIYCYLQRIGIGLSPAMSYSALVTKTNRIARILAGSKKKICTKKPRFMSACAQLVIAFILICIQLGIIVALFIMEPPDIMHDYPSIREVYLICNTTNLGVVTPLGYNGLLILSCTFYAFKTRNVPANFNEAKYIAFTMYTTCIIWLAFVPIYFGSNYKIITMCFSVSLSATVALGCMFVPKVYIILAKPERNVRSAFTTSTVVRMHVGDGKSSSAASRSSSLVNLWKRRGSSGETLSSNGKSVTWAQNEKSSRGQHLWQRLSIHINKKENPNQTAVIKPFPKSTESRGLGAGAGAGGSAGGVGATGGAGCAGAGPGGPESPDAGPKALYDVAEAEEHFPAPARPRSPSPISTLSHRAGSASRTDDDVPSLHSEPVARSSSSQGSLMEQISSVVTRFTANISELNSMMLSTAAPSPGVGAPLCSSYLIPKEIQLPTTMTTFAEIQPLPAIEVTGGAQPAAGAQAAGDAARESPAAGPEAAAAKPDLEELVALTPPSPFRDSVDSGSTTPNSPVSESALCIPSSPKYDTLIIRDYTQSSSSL
Description: Activity of compounds of the present invention was examined by determination to what extent the glutamate-induced elevation of the intracellular calcium concentration in L(tk-) cells expressing human mGluR5a receptors (see L. P. Daggett et al., Neuropharm. Vol. 34, pages 871-886, 1995) is inhibited by utilizing methods as described e.g. by L. P. Daggett et al., Neuropharm. Vol. 34, pages 871-886 (1995) and P. J. Flor et al., J. Neurochem. Vol. 67, pages 58-63 (1996).

human mGluR1 = human mGluR1 (Homo sapiens (Human), UniProt Q13255); experiment: mGluR1 antagonism, L-glutamate induced intracellular calcium increase (FLIPR) in CHO cells stably expressing human mGluR1; type: cell-based; conditions: for pIC50: L-glutamate induced intracellular calcium, CHO cells expressing human mGluR1, FLIPR; for inhibition at 10 µM: CHO
Sequence of human mGluR1 (Q13255 19-1194): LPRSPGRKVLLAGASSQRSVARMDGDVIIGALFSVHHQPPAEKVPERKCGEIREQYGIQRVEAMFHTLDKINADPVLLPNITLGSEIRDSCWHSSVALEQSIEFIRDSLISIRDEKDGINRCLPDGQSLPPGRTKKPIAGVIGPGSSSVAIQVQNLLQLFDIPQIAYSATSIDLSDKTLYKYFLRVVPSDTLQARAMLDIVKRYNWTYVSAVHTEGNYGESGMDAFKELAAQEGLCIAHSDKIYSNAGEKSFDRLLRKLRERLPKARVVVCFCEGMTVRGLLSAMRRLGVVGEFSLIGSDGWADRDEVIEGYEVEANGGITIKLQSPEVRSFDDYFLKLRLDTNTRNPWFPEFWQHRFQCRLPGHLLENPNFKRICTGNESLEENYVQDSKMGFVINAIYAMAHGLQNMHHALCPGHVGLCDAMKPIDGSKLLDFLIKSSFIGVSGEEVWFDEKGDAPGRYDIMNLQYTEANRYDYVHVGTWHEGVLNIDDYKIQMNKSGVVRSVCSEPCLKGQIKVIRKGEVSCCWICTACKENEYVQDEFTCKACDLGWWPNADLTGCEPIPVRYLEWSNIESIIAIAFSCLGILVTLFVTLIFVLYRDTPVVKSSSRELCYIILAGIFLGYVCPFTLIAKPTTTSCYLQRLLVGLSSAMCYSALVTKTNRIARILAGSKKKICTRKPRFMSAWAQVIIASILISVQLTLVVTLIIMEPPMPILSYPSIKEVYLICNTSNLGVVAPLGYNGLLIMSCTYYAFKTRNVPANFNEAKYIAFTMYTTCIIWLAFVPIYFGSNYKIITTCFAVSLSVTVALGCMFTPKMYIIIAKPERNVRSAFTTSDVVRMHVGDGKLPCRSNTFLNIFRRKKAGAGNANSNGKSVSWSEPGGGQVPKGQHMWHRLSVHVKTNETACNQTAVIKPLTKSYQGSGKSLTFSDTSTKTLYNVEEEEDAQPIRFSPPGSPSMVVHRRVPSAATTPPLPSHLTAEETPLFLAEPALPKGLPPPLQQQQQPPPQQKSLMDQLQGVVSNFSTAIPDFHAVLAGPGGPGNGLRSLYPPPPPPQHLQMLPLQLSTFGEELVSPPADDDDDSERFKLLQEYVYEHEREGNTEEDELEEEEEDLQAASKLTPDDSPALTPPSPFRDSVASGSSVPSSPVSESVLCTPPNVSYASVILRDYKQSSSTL
Description: Activity of compounds of the present invention with respect to mGluR1 antagonism was examined by an assay based on measurements of L-glutamate induced intracellular calcium increases using a 96 well plate-based Fluorometric Imaging Plate Reader (FLIPR), and CHO cells stably expressing human mGluR1. L-glutamate induced robust calcium responses via human mGluR1 in a concentration-dependent manner and in the low micromolar range. The table below represents IC50 values of the inhibition of the glutamate-induced elevation of the intracellular calcium concentration.

| SMILES | pIC50 (human mGluR5a receptors) | pIC50 (human mGluR1) | inhibition at 10 µM (human mGluR5a receptors; LTK, read-out: mGluR5 % inhibition at 10 μM) [%] | inhibition at 10 µM (human mGluR1) [%] |
| --- | --- | --- | --- | --- |
| COCCOc1cccc(C2=NCC(=O)N3CCc4c(OC)cccc4C3=C2)c1 [Example 12, 9-methoxy-2-(3-(2-methoxyethoxy)phenyl)-7,8-dihydro-[1,4]diazepino[7,1-a]isoquinolin-5(4H)-one] | 7.34 | 5.89 |  |  |
| COc1cccc(C2=NCC(=O)N3CCc4c(ccc(Cl)c4OC)C3=C2)c1 [Example 13, 10-chloro-9-methoxy-2-(3-methoxyphenyl)-7,8-dihydro-[1,4]diazepino[7,1-a]isoquinolin-5(4H)-one] | 7.09 | 6.28 |  |  |
| COc1cccc(C2=NCC(=O)N3CCc4c(OC)cc(Cl)cc4C3=C2)c1 [Example 14, 11-chloro-9-methoxy-2-(3-methoxyphenyl)-7,8-dihydro-[1,4]diazepino[7,1-a]isoquinolin-5(4H)-one] | 6.26 | < 5.00 |  |  |
| CCOc1cccc(C2=NCC(=O)N3C(=C2)c2cccc(OC)c2CC3C)c1 (stereo not drawn) [Example 15, 2-(3-ethoxyphenyl)-9-methoxy-7-methyl-7,8-dihydro-[1,4]diazepino[7,1-a]isoquinolin-5(4H)-one] |  |  | 42 | 44 |
| COc1cccc2c1CCN1C(=O)CN=C(c3cccc(C(F)(F)F)c3)C=C21 [Example 16, 9-methoxy-2-(3-(trifluoromethyl)phenyl)-7,8-dihydro-[1,4]diazepino[7,1-a]isoquinolin-5(4H)-one] | 5.66 | 5.46 |  |  |
| COc1ccc(C2=NCC(=O)N3CCc4c(OC)cccc4C3=C2)cc1 [Example 17, 9-methoxy-2-(4-methoxyphenyl)-7,8-dihydro-[1,4]diazepino[7,1-a]isoquinolin-5(4H)-one] | 5.66 | < 5.00 |  |  |
| COc1ccc(C)c(C2=NCC(=O)N3CCc4c(OC)cccc4C3=C2)c1 [Example 18, 9-methoxy-2-(5-methoxy-2-methylphenyl)-7,8-dihydro-[1,4]diazepino[7,1-a]isoquinolin-5(4H)-one] | 5.39 | < 5.00 |  |  |
| O=C1CN=C(c2cccs2)C=C2c3cccc(F)c3CCN12 [Example 19, 9-fluoro-2-(thiophen-2-yl)-7,8-dihydro-[1,4]diazepino[7,1-a]isoquinolin-5(4H)-one] | 5.35 | 6.10 |  |  |
| COc1cccc(C2=NCC(=O)N3CCc4c(Br)cccc4C3=C2)c1 [Example 20, 9-bromo-2-(3-methoxyphenyl)-7,8-dihydro-[1,4]diazepino[7,1-a]isoquinolin-5(4H)-one] | 5.92 | 5.55 |  |  |
| COc1cccc2c1CCN1C(=O)CN=C(c3ccnc(N(C)C)c3)C=C21 [Example 21, 2-(2-(dimethylamino)pyridin-4-yl)-9-methoxy-7,8-dihydro-[1,4]diazepino[7,1-a]isoquinolin-5(4H)-one] | 5.41 | 5.28 |  |  |
| COc1cc(C2=NCC(=O)N3CCc4c(cccc4N4CCOCC4)C3=C2)ccn1 [Example 22, 2-(2-methoxypyridin-4-yl)-9-morpholino-7,8-dihydro-[1,4]diazepino[7,1-a]isoquinolin-5(4H)-one] | 7.15 | < 5.00 |  |  |
| Cc1ccc(C2=NCC(=O)N3CCc4c(cccc4N4CCOCC4)C3=C2)o1 [Example 23, 2-(5-methylfuran-2-yl)-9-morpholino-7,8-dihydro-[1,4]diazepino[7,1-a]isoquinolin-5(4H)-one] | 7.66 | < 5.00 |  |  |
| Cn1ccc(C2=NCC(=O)N3CCc4c(cccc4N4CCOCC4)C3=C2)n1 [Example 24, 2-(1-methyl-1H-pyrazol-3-yl)-9-morpholino-7,8-dihydro-[1,4]diazepino[7,1-a]isoquinolin-5(4H)-one] | 7.46 | < 5.00 |  |  |
| Cn1cc(C2=NCC(=O)N3CCc4c(cccc4N4CCOCC4)C3=C2)cn1 [Example 25, 2-(1-methyl-1H-pyrazol-4-yl)-9-morpholino-7,8-dihydro-[1,4]diazepino[7,1-a]isoquinolin-5(4H)-one] | 7.18 | < 5.00 |  |  |
| COc1cccc(C2=NCC(=O)N3CCc4c(cccc4C(C)(C)O)C3=C2)c1 [Example 26, 9-(2-hydroxypropan-2-yl)-2-(3-methoxyphenyl)-7,8-dihydro-[1,4]diazepino[7,1-a]isoquinolin-5(4H)-one] | 6.63 | < 5.00 |  |  |
| Cn1ccc(C2=NCC(=O)N3CCc4c(cccc4C(C)(C)O)C3=C2)n1 [Example 27, 9-(2-hydroxypropan-2-yl)-2-(1-methyl-1H-pyrazol-3-yl)-7,8-dihydro-[1,4]diazepino[7,1-a]isoquinolin-5(4H)-one] | 6.36 | < 5.00 |  |  |
| O=C1CN=C(c2ccco2)C=C2c3cccc(-c4ccncc4)c3CCN12 [Example 28, 2-(furan-2-yl)-9-(pyridin-4-yl)-7,8-dihydro-[1,4]diazepino[7,1-a]isoquinolin-5(4H)-one] | 7.10 | 5.32 |  |  |

| SMILES | pIC50 (human mGluR5a receptors) | pIC50 (human mGluR1) | inhibition at 10 µM (human mGluR5a receptors; LTK, read-out: mGluR5 % inhibition at 10 μM) [%] | inhibition at 10 µM (human mGluR1) [%] |
| --- | --- | --- | --- | --- |
| O=C1CN=C(c2cccs2)C=C2c3cccc(Br)c3CCN12 [Example 29, 9-bromo-2-(thiophen-2-yl)-7,8-dihydro-[1,4]diazepino[7,1-a]isoquinolin-5(4H)-one] | 7.05 | 8.10 |  |  |
| COc1cccc(C2=NCC(=O)N3CCc4c(I)cccc4C3=C2)c1 [Example 30, 9-iodo-2-(3-methoxyphenyl)-7,8-dihydro-[1,4]diazepino[7,1-a]isoquinolin-5(4H)-one] | 6.82 | 5.85 |  |  |
| Cn1ccc(C2=NCC(=O)N3CCc4c(I)cccc4C3=C2)n1 [Example 31, 9-iodo-2-(1-methyl-1H-pyrazol-3-yl)-7,8-dihydro-[1,4]diazepino[7,1-a]isoquinolin-5(4H)-one] | 6.78 | 5.89 |  |  |
| COc1cc(C2=NCC(=O)N3CCc4c(I)cccc4C3=C2)ccn1 [Example 33, 9-iodo-2-(2-methoxypyridin-4-yl)-7,8-dihydro-[1,4]diazepino[7,1-a]isoquinolin-5(4H)-one] | 7.89 | 5.85 |  |  |
| O=C1CN=C(c2ccoc2)C=C2c3cccc(I)c3CCN12 [Example 34, 2-(furan-3-yl)-9-iodo-7,8-dihydro-[1,4]diazepino[7,1-a]isoquinolin-5(4H)-one] | 7.39 | 7.03 |  |  |
| CC(C)n1cc(C2=NCC(=O)N3CCc4c(I)cccc4C3=C2)cn1 [Example 35, 9-iodo-2-(1-isopropyl-1H-pyrazol-4-yl)-7,8-dihydro-[1,4]diazepino[7,1-a]isoquinolin-5(4H)-one] | 7.85 | 7.82 |  |  |
| Cn1cnc(C2=NCC(=O)N3CCc4c(I)cccc4C3=C2)c1 [Example 36, 9-iodo-2-(1-methyl-1H-imidazol-4-yl)-7,8-dihydro-[1,4]diazepino[7,1-a]isoquinolin-5(4H)-one] | 5.42 | 5.16 |  |  |
| COc1cccc2c1CCN1C(=O)CN=C(c3cnc4c(c3)OCCN4C)C=C21 [Example 36a, 9-methoxy-2-(4-methyl-3,4-dihydro-2H-pyrido[3,2-b][1,4]oxazin-7-yl)-7,8-dihydro-[1,4]diazepino[7,1-a]isoquinolin-5(4H)-one] | 5.26 |  |  | 1 |
| CCc1cccc2c1CCN1C(=O)CN=C(c3cccc(OC)c3)C=C21 [Example 37, 9-ethyl-2-(3-methoxyphenyl)-7,8-dihydro-[1,4]diazepino[7,1-a]isoquinolin-5(4H)-one] | 7.11 | 5.66 |  |  |
| C#Cc1cccc2c1CCN1C(=O)CN=C(c3cccs3)C=C21 [Example 38, 9-ethynyl-2-(thiophen-2-yl)-7,8-dihydro-[1,4]diazepino[7,1-a]isoquinolin-5(4H)-one] | 7.30 | 7.66 |  |  |
| N#Cc1cccc2c1CCN1C(=O)CN=C(c3cccs3)C=C21 [Example 39, 5-oxo-2-(thiophen-2-yl)-4,5,7,8-tetrahydro-[1,4]diazepino[7,1-a]isoquinoline-9-carbonitrile] | 6.21 | 5.80 |  |  |
| Cn1ccc(C2=NCC(=O)N3CCc4c(C#N)cccc4C3=C2)n1 [Example 40, 2-(1-methyl-1H-pyrazol-3-yl)-5-oxo-4,5,7,8-tetrahydro-[1,4]diazepino[7,1-a]isoquinoline-9-carbonitrile] | 5.28 | < 5.00 |  |  |
| COc1cccc(C2=NCC(=O)N3CCc4c(cccc4N4CCOCC4)C3=C2)c1 [Example 41, 2-(3-methoxyphenyl)-9-morpholino-7,8-dihydro-[1,4]diazepino[7,1-a]isoquinolin-5(4H)-one] | 7.49 | < 5.00 |  |  |
| CC(C)n1cc(C2=NCC(=O)N3CCc4c(cccc4-n4cccn4)C3=C2)cn1 [Example 42, 2-(1-isopropyl-1H-pyrazol-4-yl)-9-(1H-pyrazol-1-yl)-7,8-dihydro-[1,4]diazepino[7,1-a]isoquinolin-5(4H)-one] | 7.49 | 5.47 |  |  |
| COc1cccc(C2=NCC(=O)N3CCc4c(CN(C)C)cccc4C3=C2)c1 [Example 43, 9-((dimethylamino)methyl)-2-(3-methoxyphenyl)-7,8-dihydro-[1,4]diazepino[7,1-a]isoquinolin-5(4H)-one] | 6.16 | < 5.00 |  |  |
| COCCOCc1cccc2c1CCN1C(=O)CN=C(c3cccc(OC)c3)C=C21 [Example 44, 9-((2-methoxyethoxy)methyl)-2-(3-methoxyphenyl)-7,8-dihydro-[1,4]diazepino[7,1-a]isoquinolin-5(4H)-one] | 5.80 | < 5.00 |  |  |
